# Patent publication US6797462B1, “Cell-based assay for immunodeficiency virus infectivity and sensitivity” (UAB Research Foundation, priority 1998, dated 2004)
# Tested on: HIV YU2
# Experiment: Protease inhibitor sensitivity: J53tat cells infected with HIV YU2 with drug, supernatant used to infect J53BL cells
# Format: cell-based, HIV-1
# Conditions: for Number of colony formed in the presence of protease Inhibitor Indinavir: YU2, J53tat then J53BL
# Description: The J53tat cell line is used to produce virus and thereby enable viral testing of drug candidates that affect various stages of the virus life cycle. Thus, viral drug resistance mutations in early stage targets such as reverse transcriptase (RT), integrase (IN) and env; and late stage targets such as protease and Gag are analyzed by the methods of the present invention. The J53tat cells are infected with HIV YU2 (MOI of either 0.2 or 0.04), and protease inhibitor (indinavir) is added to the cultures at various concentrations. Forty hours after infection the culture supernatant is collected and used to infect the J53BL cell line in the presence of the same drug concentrations.
smiles,measurement,setting,value
CC(C)(C)NC(=O)[C@@H]1CN(Cc2cccnc2)CCN1C[C@@H](O)C[C@@H](Cc1ccccc1)C(=O)N[C@H]1c2ccccc2C[C@H]1O [indinavir],Number of colony formed in the presence of protease Inhibitor Indinavir,"0.04 M.O.I, 0.008 MM indinavir",105
same,Number of colony formed in the presence of protease Inhibitor Indinavir,"0.04 M.O.I, 0.2 MM indinavir",2
same,Number of colony formed in the presence of protease Inhibitor Indinavir,"0.04 M.O.I, 1.0 MM indinavir",0
same,Number of colony formed in the presence of protease Inhibitor Indinavir,0.04 M.O.I,2
same,Number of colony formed in the presence of protease Inhibitor Indinavir,"0.2 M.O.I, 0.008 MM indinavir",>1000
same,Number of colony formed in the presence of protease Inhibitor Indinavir,"0.2 M.O.I, 0.2 MM indinavir",99
same,Number of colony formed in the presence of protease Inhibitor Indinavir,"0.2 M.O.I, 1.0 MM indinavir",0
same,Number of colony formed in the presence of protease Inhibitor Indinavir,0.2 M.O.I,343
same,Sensitivity of YU2 to protease inhibitor,increasing concentrations causing greater inhibition,sensitive
